The target in assay [1] is T1, P2ry12 (Homo sapiens, UniProt Q9H244).
T1 construct: iMGLs express the microglial-enriched purinergic receptor P2ry12; endogenous in cells; host or cells: iMGLs (human iPSC-derived microglia-like cells)
Briefly: ADP trans-well migration assay. It counts as cell-based. The conditions noted are these: pre-exposure 50 μM, 1 hr; ADP 100 μM. The procedure: Trans-well migration assays to ADP was performed as previously described (De Simone et al., 2010; Moore et al., 2015). iMGLs (5.5×10^4 cells/well) were cultured in serum-free basal media without cytokines for 1hour. Next, iMGLS were pre-exposed to DMSO or PSB0739 (50 μM, Tocris) for 1 hr at 37° C. in 5% CO2 cell culture incubator. Cells were then washed three times with basal medium and plated in trans-well migration chambers (5 μm polycarbonate inserts in 24 wells; Corning) containing […] (ADP, 100 μM; Sigma) in the bottom chamber in 37° C. in 5% CO2. After 4 hours, cells were washed three times and fixed in PFA (4%) for 15 minutes at room temperature. Cells were stained with Hoechst stain for 10 mins to visualize nuclei of cells. A blinded observer counted total cells per slide and then scrubbed cells off top surface, washed with PBS, and recounted to record migrated cells. Migration was reported as migrated over total cells per well. Fluorescent images of cells were captured using Olympus IX71 inverted microscope. […] […]

Assay [2] deals with T1, P2ry12. Briefly: ADP calcium imaging (Fura-2-AM, I340/I380). The assay is classed as cell-based. The conditions noted are these: 50 μM, 1 hour; ADP 10 μM. The procedure: For calcium imaging, iMGLs were plated on poly-L-lysine-coated coverslips and 1 hour later were incubated with Fura-2-AM (Molecular Probes) calcium dye diluted in Ringer solution containing (in mM): NaCl 140, KCl 4.5, CaCl2 2, MgCl2 1, HEPES 10, glucose 10, sucrose 5, pH=7.4. After a 1-hour incubation, the dye was washed out 3 times using Ringer solution and treated for 1 hour with either P2RY12 inhibitor PSB0739 (50 μM, Tocris) or Vehicle (DMSO) and used for experiments. Baseline Ca^2+ signal (I340/I380) were measured for more than 100 s and then ADP (10 μM) was introduced under stead flow after baseline measurement. Ca^2+ recordings were performed on Zeiss (Axiovert 35)-based imaging setup and data acquisition was conducted with Metafluor software (Molecular Devices). Data analysis was performed using Metafluor, Origin Pro, and Prism 6.0.

Assay [3] has as its system iMGLs. Briefly: Mesoscale multiplex cytokine and chemokine assay of iMGL conditioned media. Particulars: for CCL2 secretion, mean ± SE / CCL3 secretion, mean ± SE / CCL4 secretion, mean ± SE / CCL17 secretion, mean ± SE / CXCL10 secretion, mean ± SE / IL1A secretion, mean ± SE / IL6 secretion, mean ± SE / IL8 secretion, mean ± SE / IL10 secretion, mean ± SE / TNFA secretion, mean ± SE: iMGLs stimulated 24 h, IFNγ 20 ng/ml, IL-1β 20 ng/ml or LPS 100 ng/ml; for TNFA secretion, mean ± SE: n=3 wells/group; for cytokines/chemokines secreted by iMGLs in response to the stimulus: of the 10 examined cytokines, 24 h. It counts as cell-based, human. The procedure:
iMGLs culture media was replaced with basal media for 2 hours prior to stimulation with IFNγ (20 ng/ml), IL1β (20 ng/ml), and LPS (100 ng/ml) for 24 hours, after which cells were collected for RNA and conditioned media assessed for cytokine secretion. To simultaneously assess multiple cytokine and chemokine analytes from iMGL conditioned media, conditioned media from each treatment group was processed and analyzed using the V-PLEX human cytokine 30-plex kit (Mesoscale) according to the manufacturer protocol.

In assay [4] the test system is iMGLs. Briefly: RNA-seq differential gene expression of iMGLs with or without TGFβ. The assay is classed as cell-based, human. The procedure: Cells were harvested and washed three times with DPBS and stored in RNAlater, RNA preservation solution. RNA was extracted from all cell types using RNeasy Mini Kit (Qiagen) following manufacturer's guidelines. RNA integrity (RIN) was measured for all samples using the Bioanalzyer Agilent 2100 series. All sequencing libraries analyzed were generated from RNA samples measuring a RIN score≥9. The Illumina TruSeq mRNA stranded protocol was used to obtain poly-A mRNA from all samples. 200 ng of isolated mRNA was used to construct RNA-seq libraries. Libraries were quantified and normalized using the Library Quantification Kit from Kapa Biosystems and sequenced as paired-end 100 bp reads on the Illumina HiSeq 2500 platform.
RNA-seq reads were mapped to the hg38 reference genome using STAR aligner and mapped to Gencode version 24 gene annotations using RSEM. Genes with expression (<1 FPKM) across all samples were filtered from all subsequent analysis. Differential gene expression analysis was performed on TMM normalized counts with EdgeR (Robinson et al., 2010). Multiple biological replicates were used for all comparative analysis. A p-value≤0.001 and a 2-fold change in expression were used in determining significant differentially expressed genes for respective comparisons. PCA analysis was performed using the R package rgl and plotted using plot3d. […]

Here are results for 5 compounds from patent US20240417684A1, “DIFFERENTIATION AND USE OF HUMAN MICROGLIA-LIKE CELLS FROM PLURIPOTENT STEM CELLS AND HEMATOPOIETIC PROGENITORS” (THE REGENTS OF THE UNIVERSITY OF CALIFORNIA, priority 2017, published 2024).

Entries after “also recorded” stand apart in the source; their conditions may differ.

T1 sequence (Q9H244 whole entry): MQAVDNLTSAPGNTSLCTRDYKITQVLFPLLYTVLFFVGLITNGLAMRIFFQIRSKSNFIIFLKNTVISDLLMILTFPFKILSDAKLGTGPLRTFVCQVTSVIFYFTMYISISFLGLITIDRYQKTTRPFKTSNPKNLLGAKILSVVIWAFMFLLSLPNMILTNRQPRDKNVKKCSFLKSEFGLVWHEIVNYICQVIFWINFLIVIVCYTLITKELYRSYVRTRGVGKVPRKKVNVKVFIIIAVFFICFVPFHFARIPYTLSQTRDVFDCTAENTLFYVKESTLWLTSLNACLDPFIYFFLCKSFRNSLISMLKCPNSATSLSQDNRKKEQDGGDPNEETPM

Take `Nc1c(S(=O)(=O)O)cc(Nc2ccc(Nc3ccccc3)c(S(=O)(=O)O)c2)c2c1C(=O)c1ccccc1C2=O` [PSB0739]: at P2ry12 [1], the “effect on ADP-induced iMGL migration” value is given as “negated; also recorded: completely abrogates ADP-induced iMGL migration”. For the same compound, on P2ry12 [2], the “effect on ADP-induced calcium flux in iMGLs” value is listed as “negated”.
On to “IFNγ: cytokine used to stimulate iMGLs (20 ng/ml)”, for which, in the assay with iMGLs [3], the “CCL2 secretion, mean ± SE” value is listed as 993.26 ± 55.76; the “CCL3 secretion, mean ± SE” value is 295.39 ± 19.72; the “CCL4 secretion, mean ± SE” value was 4,514.72 ± 10.01^; the “CCL17 secretion, mean ± SE” value is on record as 25.82 ± 1.98. In addition, in the assay on iMGLs [3], the “CXCL10 secretion, mean ± SE” value is 0.00 ± 0.00; the “IL1A secretion, mean ± SE” value is 1.48 ± 0.25; the “IL6 secretion, mean ± SE” value was found to be 12.22 ± 1.44; the “IL8 secretion, mean ± SE” value amounted to 3549.05 ± 181.22. In the assay with iMGLs [3], the “IL10 secretion, mean ± SE” value was found to be 4.59 ± 2.35; the “TNFA secretion, mean ± SE” value is 58.82 ± 8.80; the “cytokines/chemokines secreted by iMGLs in response to the stimulus” value (“cytokines/chemokines secreted by iMGLs” for short) was 8.
Regarding “IL-1β: cytokine used to stimulate iMGLs (20 ng/ml)”, in the assay with iMGLs [3], the “CCL2 secretion, mean ± SE” value was determined as 275.98 ± 19.54; the “CCL3 secretion, mean ± SE” value came out at 556.24 ± 54.01; the “CCL4 secretion, mean ± SE” value was 4,492.26 ± 51.35^; the “CCL17 secretion, mean ± SE” value stood at 21.75 ± 1.94. Further, in the assay with iMGLs [3], the “CXCL10 secretion, mean ± SE” value stood at 69.49 ± 4.73; the “IL1A secretion, mean ± SE” value was found to be 4.89 ± 1.45; the “IL6 secretion, mean ± SE” value amounted to 13.92 ± 0.41; the “IL8 secretion, mean ± SE” value is reported as 3,004.54 ± 47.58^. In addition, in the assay with iMGLs [3], the “IL10 secretion, mean ± SE” value is listed as 4.42 ± 1.33; the “TNFA secretion, mean ± SE” value is reported as 29.74 ± 0.65; the “cytokines/chemokines secreted by iMGLs” value worked out at 8.
Regarding Lipopolysaccharide [LPS], in the assay on iMGLs [3], the “CCL2 secretion, mean ± SE” value is reported as 5,695.46 ± 275.72; the “CCL3 secretion, mean ± SE” value amounted to 0.00 ± 0.00; the “CCL4 secretion, mean ± SE” value is given as 4,594.57 ± 33.96^; the “CCL17 secretion, mean ± SE” value worked out at 92.96 ± 7.70. Moreover, in the assay with iMGLs [3], the “CXCL10 secretion, mean ± SE” value is on record as 73.72 ± 4.53; the “IL1A secretion, mean ± SE” value was 30.55 ± 2.19; the “IL6 secretion, mean ± SE” value is on record as 274.39 ± 15.25; the “IL8 secretion, mean ± SE” value is recorded as 4,347.96 ± 75.61^. In addition, in the assay with iMGLs [3], the “IL10 secretion, mean ± SE” value was 31.31 ± 1.52; the “TNFA secretion, mean ± SE” value stood at 116.49 ± 9.77; the “cytokines/chemokines secreted by iMGLs” value was “induction of all measured cytokines except for CCL3”.
As for “TGFβ: glia-derived cytokine in iMGL differentiation media (50 ng/ml)”, in the assay on iMGLs [4] (TGFβ removal (24 hours)), the “genes differentially expressed in iMGLs after TGFβ removal” value turned out to be 1517 genes. For the same compound, in the assay with iMGLs [4] (presence of TGFβ), the “genes differentially expressed (increased) in iMGLs with TGFβ” value stood at 1262 genes.
